Laboratory results taken from patent publication US9540691B2, “Assays and methods for selecting a treatment regimen for a subject with depression” (THE GENERAL HOSPITAL CORPORATION, priority 2011, dated 2017).
Read-outs that look alike come from different tables or passages of the source. Marks after values point to notes of the source that are not given here.

Test system: MDD patients carrying the indicated conditions
Description: Folate levels are classified as either low (<=2.5 ng/ml) or normal; and homocysteine levels as either normal or elevated (>=[…]). The presence or absence of at least one […] allele for the MTHFR gene are entered as a dichotomous variable (present or absent). […] Using folate as an example predicator, the presence or absence of a low serum-folate level along with treatment assignment can be entered in a 2×2, factorial ANOVA, using depression improvement scores (baseline minus endpoint HAM-D-17 scores) as the dependant variable. […] Similar analyses (i.e. separate 2×2 ANOVA's) can be performed substituting the presence of low folate levels for the presence of other predictors as described herein. Similarly, the effect of other predictors can be indicated by the interaction term representing the potential modulating influence of those variables.
Particularly, specific genetic and biomarkers that were assessed include the following: • (a) BMI calculation of at least about 30 kg/m^2; • (b) an expression ratio of SAM/SAH smaller than 2.8 (e.g., 2.71) as measured in a plasma sample; • (c) a level of 4-HNE no less than 3.28 μg/mL (as measured in a plasma sample); • (d) presence of rare variants CT or TT at position 677 of SEQ ID NO: 1 corresponding to a portion of a genomic nucleic acid sequence of methylenetetrahydrofolate reductase (MTHFR) (abbreviated as “MTHFR 677” below); • (e) presence of rare variants AG or GG at position 2756 of SEQ ID NO: 2 corresponding to a portion of genomic nucleic acid sequence of methionine synthase (MTR) (abbreviated as “MTR 2756” below); and • (f) presence of rare variants AG or GG at position 66 of SEQ ID NO: 3 corresponding to a portion of genomic nucleic acid sequence of methionine synthase reductase (MTRR) (abbreviated as “MTRR 66” below).
The efficacy effect is determined by measuring the mean change in the HAMD-17 score and HAMD-28 score by the end of Phase I and Phase II, as compared to the baseline.

[1] = Pooled phases, interaction of BMI with the treatment, with SSRI
[2] = Pooled phases, interaction of HNE-his with the treatment, with SSRI
[3] = Pooled phases, interaction of SAM/SAH with the treatment, with SSRI

Q: How did the “Effect, change in HAMD-17 score” value (Pooled phases, MTHFR 677 CC and MTR 2756 AA (29,13), with SSRI) turn out when `CN1c2c(nc(N)[nH]c2=O)NC[C@@H]1CNc1ccc(C(=O)N[C@@H](CCC(=O)O)C(=O)O)cc1` [6(S)-5-MTHF, 6(S)-5-methyltetrahydrofolate] was run?
A: 0.722

Q: And the “Effect, change in HAMD-28 score” value (Pooled phases, MTHFR 677 CC and MTR 2756 AA, with SSRI)?
A: 0.711

Q: What about the “Effect, change in HAMD-17 score” value (Pooled phases, MTHFR 677 CT or TT and BMI >= 30 kg/m^2 (13,6), with SSRI) of the same molecule?
A: −8.090

Q: And the “Effect, change in HAMD-28 score” value (Pooled phases, MTHFR 677 CT or TT and BMI >= 30 kg/m^2, with SSRI)?
A: −9.884

Q: What about the “Effect, change in HAMD-17 score” value (Pooled phases, MTHFR 677 CT or TT and HNE-His >= median (11,6), with SSRI) of the same molecule?
A: −9.446

Q: What about the “Effect, change in HAMD-28 score” value (Pooled phases, MTHFR 677 CT or TT and HNE-His >= median, with SSRI) of the same molecule?
A: −9.865

Q: And the “Effect, change in HAMD-17 score” value (Pooled phases, MTHFR 677 CT or TT and MTR 2756 AG or GG (8,4), with SSRI)?
A: −18.71

Q: And the “Effect, change in HAMD-28 score” value (Pooled phases, MTHFR 677 CT or TT and MTR 2756 AG or GG, with SSRI)?
A: −23.29

Q: And the “Effect, change in HAMD-17 score” value (Pooled phases, MTR 2756 AA (45,21), with SSRI)?
A: −0.590

Q: And the “Effect, change in HAMD-17 score” value (Pooled phases, MTR 2756 AA and BMI < 30 kg/m^2 (17,7), with SSRI)?
A: 3.196

Q: What about the “Effect, change in HAMD-28 score” value (Pooled phases, MTR 2756 AA and BMI < 30 kg/m^2, with SSRI) of the same molecule?
A: 3.352

Q: And the “Effect, change in HAMD-17 score” value (Pooled phases, MTR 2756 AA and HNE-His < median (26,13), with SSRI)?
A: 1.319

Q: What about the “Effect, change in HAMD-28 score” value (Pooled phases, MTR 2756 AA and HNE-His < median, with SSRI) of the same molecule?
A: 2.085

Q: And the “Effect, change in HAMD-17 score” value (Pooled phases, MTR 2756 AA and MTRR 66 AA (11,5), with SSRI)?
A: −1.373

Q: What about the “Effect, change in HAMD-17 score” value (Pooled phases, MTR 2756 AA and MTRR 66 AA and HNE-His < median (6,4), with SSRI) of the same molecule?
A: 0.466

Q: And the “Effect, change in HAMD-28 score” value (Pooled phases, MTR 2756 AA and MTRR 66 AA and HNE-His < median = 3.28 (plasma sample), with SSRI)?
A: −2.221

Q: What about the “Effect, change in HAMD-17 score” value (Pooled phases, MTR 2756 AA and MTRR 66 AA and SAM/SAH >= median (6,3), with SSRI) of the same molecule?
A: −3.98*

Q: And the “Effect, change in HAMD-28 score” value (Pooled phases, MTR 2756 AA and MTRR 66 AA and SAM/SAH >= median, with SSRI)?
A: −3.74*

Q: What about the “Effect, change in HAMD-28 score” value (Pooled phases, MTR 2756 AA and MTRR 66 AA, with SSRI) of the same molecule?
A: −3.032

Q: What about the “Effect, change in HAMD-17 score” value (Pooled phases, MTR 2756 AA and SAM/SAH >= median (24,12), with SSRI) of the same molecule?
A: 0.054

Q: What about the “Effect, change in HAMD-28 score” value (Pooled phases, MTR 2756 AA and SAM/SAH >= median, with SSRI) of the same molecule?
A: −0.071

Q: And the “Effect, change in HAMD-28 score” value (Pooled phases, MTR 2756 AA, with SSRI)?
A: −0.047

Q: What about the “Effect, change in HAMD-17 score” value (Pooled phases, MTR 2756 AG or GG and BMI >= 30 kg/m^2 (10,5), with SSRI) of the same molecule?
A: −11.714

Q: And the “Effect, change in HAMD-28 score” value (Pooled phases, MTR 2756 AG or GG and BMI >= 30 kg/m^2, with SSRI)?
A: −14.433

Q: What about the “Effect, change in HAMD-17 score” value (Pooled phases, MTR 2756 AG or GG and HNE-His >= median (13,7), with SSRI) of the same molecule?
A: −8.072

Q: What about the “Effect, change in HAMD-28 score” value (Pooled phases, MTR 2756 AG or GG and HNE-His >= median = 3.28 (plasma sample), with SSRI) of the same molecule?
A: −9.508

Q: And the “Effect, change in HAMD-17 score” value (Pooled phases, MTR 2756 AG or GG and MTRR 66 AG or GG (15,7), with SSRI)?
A: −6.976

Q: And the “Effect, change in HAMD-17 score” value (Pooled phases, MTR 2756 AG or GG and MTRR 66 AG or GG and BMI >= 30 kg/m^2 (8,4), with SSRI)?
A: −10.972

Q: What about the “Effect, change in HAMD-28 score” value (Pooled phases, MTR 2756 AG or GG and MTRR 66 AG or GG and BMI >= 30 kg/m^2, with SSRI) of the same molecule?
A: −15.347

Q: And the “Effect, change in HAMD-17 score” value (Pooled phases, MTR 2756 AG or GG and MTRR 66 AG or GG and HNE-His >= median (10,4), with SSRI)?
A: −7.942

Q: And the “Effect, change in HAMD-28 score” value (Pooled phases, MTR 2756 AG or GG and MTRR 66 AG or GG and HNE-His >= median, with SSRI)?
A: −10.241

Q: And the “Effect, change in HAMD-28 score” value (Pooled phases, MTR 2756 AG or GG and MTRR 66 AG or GG, with SSRI)?
A: −9.348

Q: What about the “Effect, change in HAMD-17 score” value (Pooled phases, MTR 2756 AG or GG and SAM/SAH < median (10,4), with SSRI) of the same molecule?
A: −5.583

Q: What about the “Effect, change in HAMD-28 score” value (Pooled phases, MTR 2756 AG or GG and SAM/SAH < median = 2.71 (plasma sample), with SSRI) of the same molecule?
A: −11.683

Q: And the “Effect, change in HAMD-17 score” value (Pooled phases, MTR 2756 AG/GG (20,11), with SSRI)?
A: −5.677

Q: What about the “Effect, change in HAMD-28 score” value (Pooled phases, MTR 2756 AG/GG, with SSRI) of the same molecule?
A: −8.243

Q: What about the “Effect, change in HAMD-17 score” value (Pooled phases, MTRR 66 AA and HNE-His < median (8,5), with SSRI) of the same molecule?
A: 2.575

Q: What about the “Effect, change in HAMD-28 score” value (Pooled phases, MTRR 66 AA and HNE-His < median = 3.28 (plasma sample), with SSRI) of the same molecule?
A: −2.626

Q: What about the “Effect, change in HAMD-17 score” value (Pooled phases, MTRR 66 AA and SAM/SAH >= median (9,6), with SSRI) of the same molecule?
A: −2.978

Q: What about the “Effect, change in HAMD-28 score” value (Pooled phases, MTRR 66 AA and SAM/SAH >= median, with SSRI) of the same molecule?
A: −1.221

Q: What about the “Effect, change in HAMD-17 score” value (Pooled phases, MTRR 66 AG or GG and HNE-His >= median (24,11), with SSRI) of the same molecule?
A: −4.850

Q: What about the “Effect, change in HAMD-17 score” value (Pooled phases, MTRR 66 AG or GG and SAM/SAH < median (24,10), with SSRI) of the same molecule?
A: −5.879

Q: And the “Effect, change in HAMD-28 score” value (Pooled phases, MTRR 66 AG or GG and SAM/SAH < median = 2.71 (plasma sample), with SSRI)?
A: −6.579

Q: And the “Effect, change in HAMD-17 score” value (Pooled phases, SAM/SAH < median and HNE-His >= median (19,7), with SSRI)?
A: −9.898

Q: What about the “Effect, change in HAMD-28 score” value (Pooled phases, SAM/SAH < median and HNE-His >= median, with SSRI) of the same molecule?
A: −9.500

Q: And the “Effect, change in HAMD-17 score” value (Pooled phases, SAM/SAH >= median and HNE-His < median (18,8), with SSRI)?
A: 2.107

Q: And the “Effect, change in HAMD-28 score” value (Pooled phases, SAM/SAH >= median and HNE-His < median, with SSRI)?
A: 2.413

Q: What about the “Effect, change in HAMD-17 score: BMI*treat” value [1] of the same molecule?
A: −0.233

Q: What about the “Effect, change in HAMD-28 score: BMI*treat” value [1] of the same molecule?
A: −0.270

Q: And the “Effect, change in HAMD-17 score: HNE-his*treat” value [2]?
A: 0.626

Q: And the “Effect, change in HAMD-28 score: HNE-his*treat” value [2]?
A: 0.685

Q: What about the “Effect, change in HAMD-17 score: SAM/SAH*treat” value [3] of the same molecule?
A: 0.882

Q: What about the “Effect, change in HAMD-28 score: SAM/SAH*treat (last line)” value [3] of the same molecule?
A: 1.112

Q: What about the “Effect, change in HAMD-17 score: baseHAMD-17*treat” value (Pooled phases, interaction of base HAMD-17 with the treatment, with SSRI) of the same molecule?
A: −0.025

Q: What about the “Effect, change in HAMD-28 score: SAM/SAH*treat (first line under HAMD28)” value (Pooled phases, interaction with the treatment, with SSRI) of the same molecule?
A: 0.882

Q: And the “improvement in HDRS-28 or CGI-S, patients with at least one T allele at MTHFR 677 vs no T allele (in words)” value (in combination with an SSRI, FIGS. 4A-4B)?
A: greater degree of improvement

Q: What about the “improvement in HAMD-28 or CGI-S, obese (BMI at least 30 kg/m^2) vs non-obese patients (in words)” value (in combination with an SSRI, FIGS. 5A-5B) of the same molecule?
A: greater degree of improvement
